BigSolDB 2.1

CS(=O)(=O)OCCCCOS(C)(=O)=O
solubility (mole fraction) (in 2-butoxyethanol, 278.15 K): 0.000161
solubility (mole fraction) (in 2-butoxyethanol, 283.15 K): 0.000208
solubility (mole fraction) (in 2-butoxyethanol, 288.15 K): 0.000261
solubility (mole fraction) (in 2-butoxyethanol, 293.15 K): 0.000332
solubility (mole fraction) (in 2-butoxyethanol, 298.15 K): 0.000417
solubility (mole fraction) (in 2-butoxyethanol, 303.15 K): 0.000522
solubility (mole fraction) (in 2-butoxyethanol, 308.15 K): 0.00066
solubility (mole fraction) (in 2-butoxyethanol, 313.15 K): 0.000811
solubility (mole fraction) (in 2-butoxyethanol, 318.15 K): 0.00102
solubility (mole fraction) (in 2-butoxyethanol, 323.15 K): 0.00124
solubility (mole fraction) (in 2-ethoxyethanol, 278.15 K): 0.000166
solubility (mole fraction) (in 2-ethoxyethanol, 283.15 K): 0.000255
solubility (mole fraction) (in 2-ethoxyethanol, 288.15 K): 0.000389
solubility (mole fraction) (in 2-ethoxyethanol, 293.15 K): 0.000587
solubility (mole fraction) (in 2-ethoxyethanol, 298.15 K): 0.000857
solubility (mole fraction) (in 2-ethoxyethanol, 303.15 K): 0.00128
solubility (mole fraction) (in 2-ethoxyethanol, 308.15 K): 0.00179
solubility (mole fraction) (in 2-ethoxyethanol, 313.15 K): 0.00259
solubility (mole fraction) (in 2-ethoxyethanol, 318.15 K): 0.00367
solubility (mole fraction) (in 2-ethoxyethanol, 323.15 K): 0.00511
solubility (mole fraction) (in 2-methoxyethanol, 278.15 K): 0.000446
solubility (mole fraction) (in 2-methoxyethanol, 283.15 K): 0.000675
solubility (mole fraction) (in 2-methoxyethanol, 288.15 K): 0.00104
solubility (mole fraction) (in 2-methoxyethanol, 293.15 K): 0.00149
solubility (mole fraction) (in 2-methoxyethanol, 298.15 K): 0.0022
solubility (mole fraction) (in 2-methoxyethanol, 303.15 K): 0.00311
solubility (mole fraction) (in 2-methoxyethanol, 308.15 K): 0.00438
solubility (mole fraction) (in 2-methoxyethanol, 313.15 K): 0.00609
solubility (mole fraction) (in 2-methoxyethanol, 318.15 K): 0.0085
solubility (mole fraction) (in 2-methoxyethanol, 323.15 K): 0.0118
solubility (mole fraction) (in 2-propoxyethanol, 278.15 K): 0.000168
solubility (mole fraction) (in 2-propoxyethanol, 283.15 K): 0.000221
solubility (mole fraction) (in 2-propoxyethanol, 288.15 K): 0.00031
solubility (mole fraction) (in 2-propoxyethanol, 293.15 K): 0.000398
solubility (mole fraction) (in 2-propoxyethanol, 298.15 K): 0.00053
solubility (mole fraction) (in 2-propoxyethanol, 303.15 K): 0.000693
solubility (mole fraction) (in 2-propoxyethanol, 308.15 K): 0.000905
solubility (mole fraction) (in 2-propoxyethanol, 313.15 K): 0.00118
solubility (mole fraction) (in 2-propoxyethanol, 318.15 K): 0.00155
solubility (mole fraction) (in 2-propoxyethanol, 323.15 K): 0.00196
solubility (mole fraction) (in DMF, 278.15 K): 0.0116
solubility (mole fraction) (in DMF, 283.15 K): 0.0151
solubility (mole fraction) (in DMF, 288.15 K): 0.0194
solubility (mole fraction) (in DMF, 293.15 K): 0.0248
solubility (mole fraction) (in DMF, 298.15 K): 0.0317
solubility (mole fraction) (in DMF, 303.15 K): 0.0397
solubility (mole fraction) (in DMF, 308.15 K): 0.0495
solubility (mole fraction) (in DMF, 313.15 K): 0.0611
solubility (mole fraction) (in DMF, 318.15 K): 0.076
solubility (mole fraction) (in DMF, 323.15 K): 0.0929
solubility (mole fraction) (in DMSO, 298.15 K): 0.0367
solubility (mole fraction) (in DMSO, 303.15 K): 0.0459
solubility (mole fraction) (in DMSO, 308.15 K): 0.0567
solubility (mole fraction) (in DMSO, 313.15 K): 0.0695
solubility (mole fraction) (in DMSO, 318.15 K): 0.0851
solubility (mole fraction) (in DMSO, 323.15 K): 0.103
solubility (mole fraction) (in NMP, 278.15 K): 0.0172
solubility (mole fraction) (in NMP, 283.15 K): 0.0215
solubility (mole fraction) (in NMP, 288.15 K): 0.0266
solubility (mole fraction) (in NMP, 293.15 K): 0.0328
solubility (mole fraction) (in NMP, 298.15 K): 0.0401
solubility (mole fraction) (in NMP, 303.15 K): 0.0487
solubility (mole fraction) (in NMP, 308.15 K): 0.059
solubility (mole fraction) (in NMP, 313.15 K): 0.0713
solubility (mole fraction) (in NMP, 318.15 K): 0.0853
solubility (mole fraction) (in NMP, 323.15 K): 0.102
solubility (mole fraction) (in ethanol, 278.15 K): 1.55e-05
solubility (mole fraction) (in ethanol, 283.15 K): 2.49e-05
solubility (mole fraction) (in ethanol, 288.15 K): 3.95e-05
solubility (mole fraction) (in ethanol, 293.15 K): 6.08e-05
solubility (mole fraction) (in ethanol, 298.15 K): 9.34e-05
solubility (mole fraction) (in ethanol, 303.15 K): 0.000142
solubility (mole fraction) (in ethanol, 308.15 K): 0.000211
solubility (mole fraction) (in ethanol, 313.15 K): 0.000315
solubility (mole fraction) (in ethanol, 318.15 K): 0.00046
solubility (mole fraction) (in ethanol, 323.15 K): 0.000655
solubility (mole fraction) (in ethyl acetate, 278.15 K): 0.000385
solubility (mole fraction) (in ethyl acetate, 283.15 K): 0.000575
solubility (mole fraction) (in ethyl acetate, 288.15 K): 0.00081
solubility (mole fraction) (in ethyl acetate, 293.15 K): 0.00112
solubility (mole fraction) (in ethyl acetate, 298.15 K): 0.0016
solubility (mole fraction) (in ethyl acetate, 303.15 K): 0.00209
solubility (mole fraction) (in ethyl acetate, 308.15 K): 0.00287
solubility (mole fraction) (in ethyl acetate, 313.15 K): 0.0038
solubility (mole fraction) (in ethyl acetate, 318.15 K): 0.00525
solubility (mole fraction) (in ethyl acetate, 323.15 K): 0.00705
solubility (mole fraction) (in methanol, 278.15 K): 4.32e-05
solubility (mole fraction) (in methanol, 283.15 K): 6.97e-05
solubility (mole fraction) (in methanol, 288.15 K): 0.000107
solubility (mole fraction) (in methanol, 293.15 K): 0.000167
solubility (mole fraction) (in methanol, 298.15 K): 0.000251
solubility (mole fraction) (in methanol, 303.15 K): 0.000379
solubility (mole fraction) (in methanol, 308.15 K): 0.000555
solubility (mole fraction) (in methanol, 313.15 K): 0.000813
solubility (mole fraction) (in methanol, 318.15 K): 0.00119
solubility (mole fraction) (in methanol, 323.15 K): 0.00169
solubility (mole fraction) (in methyl acetate, 278.15 K): 0.000892
solubility (mole fraction) (in methyl acetate, 283.15 K): 0.00109
solubility (mole fraction) (in methyl acetate, 288.15 K): 0.00179
solubility (mole fraction) (in methyl acetate, 293.15 K): 0.00248
solubility (mole fraction) (in methyl acetate, 298.15 K): 0.00323
solubility (mole fraction) (in methyl acetate, 303.15 K): 0.0045
solubility (mole fraction) (in methyl acetate, 308.15 K): 0.00592
solubility (mole fraction) (in methyl acetate, 313.15 K): 0.008
solubility (mole fraction) (in methyl acetate, 318.15 K): 0.0107
solubility (mole fraction) (in methyl acetate, 323.15 K): 0.0145
solubility (mole fraction) (in n-butanol, 278.15 K): 6.8e-06
solubility (mole fraction) (in n-butanol, 283.15 K): 1.09e-05
solubility (mole fraction) (in n-butanol, 288.15 K): 1.72e-05
solubility (mole fraction) (in n-butanol, 293.15 K): 2.66e-05
solubility (mole fraction) (in n-butanol, 298.15 K): 4.22e-05
solubility (mole fraction) (in n-butanol, 303.15 K): 6.35e-05
solubility (mole fraction) (in n-butanol, 308.15 K): 9.25e-05
solubility (mole fraction) (in n-butanol, 313.15 K): 0.000135
solubility (mole fraction) (in n-butanol, 318.15 K): 0.000191
solubility (mole fraction) (in n-butanol, 323.15 K): 0.000276
solubility (mole fraction) (in n-butyl acetate, 278.15 K): 0.000209
solubility (mole fraction) (in n-butyl acetate, 283.15 K): 0.000289
solubility (mole fraction) (in n-butyl acetate, 288.15 K): 0.000402
solubility (mole fraction) (in n-butyl acetate, 293.15 K): 0.000549
solubility (mole fraction) (in n-butyl acetate, 298.15 K): 0.000785
solubility (mole fraction) (in n-butyl acetate, 303.15 K): 0.000962
solubility (mole fraction) (in n-butyl acetate, 308.15 K): 0.00122
solubility (mole fraction) (in n-butyl acetate, 313.15 K): 0.00175
solubility (mole fraction) (in n-butyl acetate, 318.15 K): 0.00218
solubility (mole fraction) (in n-butyl acetate, 323.15 K): 0.00281
solubility (mole fraction) (in n-propanol, 278.15 K): 4.5e-06
solubility (mole fraction) (in n-propanol, 283.15 K): 8e-06
solubility (mole fraction) (in n-propanol, 288.15 K): 1.43e-05
solubility (mole fraction) (in n-propanol, 293.15 K): 2.4e-05
solubility (mole fraction) (in n-propanol, 298.15 K): 4.05e-05
solubility (mole fraction) (in n-propanol, 303.15 K): 6.68e-05
solubility (mole fraction) (in n-propanol, 308.15 K): 0.000107
solubility (mole fraction) (in n-propanol, 313.15 K): 0.000173
solubility (mole fraction) (in n-propanol, 318.15 K): 0.000277
solubility (mole fraction) (in n-propanol, 323.15 K): 0.000444
solubility (mole fraction) (in n-propyl acetate, 278.15 K): 0.00016
solubility (mole fraction) (in n-propyl acetate, 283.15 K): 0.000298
solubility (mole fraction) (in n-propyl acetate, 288.15 K): 0.000468
solubility (mole fraction) (in n-propyl acetate, 293.15 K): 0.000649
solubility (mole fraction) (in n-propyl acetate, 298.15 K): 0.00101
solubility (mole fraction) (in n-propyl acetate, 303.15 K): 0.00137
solubility (mole fraction) (in n-propyl acetate, 308.15 K): 0.00195
solubility (mole fraction) (in n-propyl acetate, 313.15 K): 0.00272
solubility (mole fraction) (in n-propyl acetate, 318.15 K): 0.00386
solubility (mole fraction) (in n-propyl acetate, 323.15 K): 0.00531
